# From the supplement of paper PMC10331698
# ± gives the standard deviation of the averaged measurements.
# Assays:
# Assay in all cases: level (log10 ratio to DMSO vehicle control); higher = higher biomarker level / cell amount than vehicle control
# Settings in all cases: in DMSO
# [1] = compound: FC(F)C(F)(F)COCC1CO1 [((2,2,3,3-Tetrafluoropropoxy)methyl)oxirane]
# Procedure: (§1)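 BioMAP Diversity Plus panel of 12 human primary cell co-culture systems (3C, 4H, LPS, SAg, BT, BF4T, BE3C, CASM3C, HDF3CGF, KF3CT, MyoF, Mphg). Compounds were added 1 h before stimulation and left for 24 h (MyoF 48 h; BT 72 h for soluble read-outs or 6 d for IgG). Biomarkers were read by ELISA, cytotoxicity by SRB, PBMC viability and proliferation by Alamar Blue. Each well value was divided by the mean of 8 DMSO control wells on the same plate and log10 transformed; duplicate blinded samples were tested at 4 concentrations.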
# [2] = compound: NC(=O)C(F)(F)C(F)(F)C(F)(F)F [Heptafluorobutyramide]
# Procedure: as §1
# [3] = compound: NCC(F)(F)C(F)(F)C(F)(F)C(F)(F)C(F)(F)C(F)(F)C(F)(F)F [1H,1H-Perfluorooctylamine]
# Procedure: as §1
# [4] = compound: O=C(O)C(F)(F)C(F)(F)C(F)(F)C(F)(F)C(F)(F)C(F)(F)C(F)(F)C(F)(F)C(F)(F)F [Perfluorodecanoic acid]
# Procedure: as §1
# [5] = compound: O=C(O)C(F)(F)C(F)(F)C(F)(F)C(F)(F)C(F)(F)C(F)(F)C(F)(F)C(F)F [9-H-Perfluorononanoic acid]
# Procedure: as §1
# [6] = compound: O=C(O)C(F)(F)OC(F)(F)C(F)(F)OC(F)(F)F [Perfluoro-3,6-dioxaheptanoic acid]
# Procedure: as §1
# [7] = compound: OCCC(F)(F)C(F)(F)C(F)(F)C(F)(F)C(F)(F)C(F)(F)F [6:2 Fluorotelomer alcohol]
# Procedure: as §1
Test System,level (log10) ([1]; 6700 nM),level (log10) ([1]; 20000 nM),level (log10) ([1]; 60000 nM),level (log10) ([2]; 6700 nM),level (log10) ([2]; 20000 nM),level (log10) ([2]; 60000 nM),level (log10) ([3]; 6700 nM),level (log10) ([3]; 20000 nM),level (log10) ([3]; 60000 nM),level (log10) ([4]; 6700 nM),level (log10) ([4]; 20000 nM),level (log10) ([5]; 6700 nM),level (log10) ([5]; 20000 nM),level (log10) ([5]; 60000 nM),level (log10) ([6]; 6700 nM),level (log10) ([6]; 20000 nM),level (log10) ([6]; 60000 nM),level (log10) ([7]; 6700 nM),level (log10) ([7]; 20000 nM)
BT:Secreted IgG,0.0295 ± 0.047,-0.003 ± 0.071,-0.0065 ± 0.098,0.034 ± 0.0085,-0.005 ± 0.031,0.0285 ± 0.025,0.0485 ± 0.03,0.039 ± 0.034,-0.0175 ± 0.04,-0.014 ± 0.033,-0.018 ± 0.02,0.038 ± 0.0071,-0.011 ± 0.031,0.0485 ± 0.019,0.003 ± 0.016,-0.016 ± 0.018,-0.018 ± 0.0057,0.02,0.0195 ± 0.0035
BT:sIL-17F,-0.0295 ± 0.12,0.001 ± 0.13,0.0005 ± 0.061,-0.001 ± 0.035,-0.0165 ± 0.018,-0.006 ± 0.03,-0.033 ± 0.0071,-0.0475 ± 0.0064,-0.089 ± 0.017,0.019 ± 0.016,0.0345 ± 0.13,0.0055 ± 0.0064,0.0945 ± 0.035,0.031 ± 0.0085,-0.0035 ± 0.18,-0.033 ± 0.027,-0.0495 ± 0.021,-0.087 ± 0.17,-0.146 ± 0.18
BF4T:MMP-9,0.0055 ± 0.005,-0.01 ± 0.0042,0.0065 ± 0.013,0.014 ± 0.017,0.0035 ± 0.039,0.011 ± 0.04,0.0005 ± 0.0064,-0.0105 ± 0.015,0.002 ± 0.0028,-0.025 ± 0.0057,-0.282 ± 0.023,-0.073 ± 0.045,-0.039 ± 0.0071,-0.004 ± 0.0014,-0.028 ± 0.059,-0.028 ± 0.031,-0.0155 ± 0.022,-0.0025 ± 0.011,-0.0105 ± 0.00071
3C:CXCL8/IL-8,-0.0255 ± 0.005,-0.0275 ± 0.0021,0.003 ± 0.042,0.008 ± 0.0071,-0.0035 ± 0.016,0.0105 ± 0.011,-0.02 ± 0.0085,-0.0125 ± 0.00071,0.0085 ± 0.046,0.009 ± 0.013,0.0155 ± 0.021,-0.0115 ± 0.011,0.015 ± 0.0057,0.0765 ± 0.005,0.0235 ± 0.012,0.002 ± 0.035,0.0825 ± 0.074,-0.001 ± 0.0085,-0.0105 ± 0.0092
4H:CD106/VCAM-1,0.01 ± 0.013,-0.017 ± 0.0042,-0.023 ± 0.017,-0.004 ± 0.021,-0.014 ± 0.025,-0.0155 ± 0.015,0 ± 0.023,-0.041 ± 0.027,-0.034 ± 0.0085,0.0165 ± 0.0092,0.0185 ± 0.029,0.005 ± 0.054,0.0095 ± 0.016,-0.001 ± 0.016,-0.0245 ± 0.0092,0.001 ± 0.034,-0.0215 ± 0.021,0 ± 0.0057,-0.002 ± 0.0057
LPS:sPGE2,-0.0355 ± 0.032,-0.022 ± 0.011,-0.037 ± 0.014,-0.0305 ± 0.057,0.011 ± 0.0042,-0.004 ± 0.0071,-0.076 ± 0.025,-0.059 ± 0.031,-0.036 ± 0.013,-0.017 ± 0.025,-0.052 ± 0.0071,0.005 ± 0.0057,-0.0205 ± 0.0092,-0.096 ± 0.0042,-0.0065 ± 0.047,-0.0395 ± 0.018,-0.006 ± 0.021,-0.028 ± 0.05,-0.0465 ± 0.039
BF4T:tPA,-0.009 ± 0.018,-0.001 ± 0.033,0.016 ± 0.064,-0.0065 ± 0.013,0.0015 ± 0.005,0.0135 ± 0.018,-0.017 ± 0.023,-0.027 ± 0.021,0.003 ± 0.014,-0.0185 ± 0.005,-0.18 ± 0.097,-0.094 ± 0.014,-0.128 ± 0.012,-0.122 ± 0.019,-0.0365 ± 0.05,-0.0115 ± 0.063,-0.041 ± 0.068,-0.0215 ± 0.032,-0.0135 ± 0.021
BE3C:CD87/uPAR,-0.016 ± 0.018,-0.017 ± 0.028,-0.0135 ± 0.022,0.043 ± 0.04,0.0155 ± 0.016,-0.019 ± 0.017,0.0025 ± 0.0021,-0.0035 ± 0.012,0.008 ± 0.0099,0.05 ± 0.016,-0.554 ± 0.011,0.0155 ± 0.035,0.0015 ± 0.0092,0.0325 ± 0.0021,0.0055 ± 0.021,0.0075 ± 0.0021,-0.0045 ± 0.015,0.005 ± 0.031,-0.0155 ± 0.012
LPS:CXCL8/IL-8,-0.035 ± 0.038,-0.024 ± 0.031,0.004 ± 0.0014,-0.01 ± 0.038,-0.0025 ± 0.032,0.0115 ± 0.0078,-0.0315 ± 0.011,-0.0265 ± 0.0035,-0.0105 ± 0.033,0.027 ± 0.0071,0.0115 ± 0.0064,0.046 ± 0.047,0.102 ± 0.021,0.17 ± 0.033,0.007 ± 0.028,0.0265 ± 0.0064,0.0505 ± 0.0078,0.071 ± 0.038,0.039 ± 0.023
SAg:CXCL9/MIG,-0.002 ± 0.011,-0.006 ± 0.014,0.0065 ± 0.0092,0.0075 ± 0.0021,-0.0025 ± 0.012,0.0005 ± 0.013,-0.0035 ± 0.005,-0.019 ± 0.0057,-0.01 ± 0.0014,-0.006 ± 0.011,-0.0025 ± 0.015,-0.01 ± 0.017,-0.0055 ± 0.015,0.0055 ± 0.0064,0.006 ± 0.014,0.001 ± 0.014,0.0055 ± 0.0078,-0.0095 ± 0.0021,-0.0055 ± 0.00071
3C:CD87/uPAR,0.0035 ± 0.012,-0.002 ± 0.0042,0.009 ± 0.0042,-0.014 ± 0.082,-0.0435 ± 0.07,-0.0375 ± 0.066,-0.009 ± 0.023,-0.017 ± 0.025,-0.006 ± 0.0057,0.011 ± 0.02,-0.01 ± 0.02,-0.013 ± 0.0042,-0.0105 ± 0.023,-0.029 ± 0.034,-0.0205 ± 0.00071,-0.0015 ± 0.019,-0.015 ± 0.028,-0.0205 ± 0.059,-0.0095 ± 0.042
LPS:CD106/VCAM-1,0.0015 ± 0.036,-0.024 ± 0.0071,-0.032 ± 0.042,0.0005 ± 0.005,-0.0005 ± 0.012,-0.0145 ± 0.029,-0.006 ± 0.023,-0.015 ± 0.013,-0.0135 ± 0.0092,0.0015 ± 0.0035,-0.001 ± 0.0014,-0.0165 ± 0.013,-0.006 ± 0.0028,0.0075 ± 0.033,-0.0215 ± 0.023,-0.007 ± 0.0085,-0.0105 ± 0.005,-0.0045 ± 0.0078,-0.0025 ± 0.011
BF4T:Keratin 8/18,0.0005 ± 0.005,-0.008 ± 0.014,-0.0025 ± 0.042,-0.0015 ± 0.03,0.0065 ± 0.026,0.0055 ± 0.057,-0.0065 ± 0.021,-0.011 ± 0.014,0.0035 ± 0.00071,0.011 ± 0.0028,-0.335 ± 0.042,-0.007 ± 0.052,0.0065 ± 0.044,0.0005 ± 0.0035,-0.025 ± 0.023,-0.001 ± 0.014,-0.0095 ± 0.018,0.0035 ± 0.0035,0.005 ± 0.0042
LPS:CD62E/E-Selectin,0.012 ± 0.02,0.0055 ± 0.033,0.0145 ± 0.033,-0.0065 ± 0.022,-0.0195 ± 0.016,-0.0365 ± 0.035,-0.017 ± 0.03,-0.005 ± 0.033,0.008 ± 0.017,-0.0115 ± 0.00071,-0.0205 ± 0.015,0.0005 ± 0.042,0.003 ± 0.0071,0.0525 ± 0.0035,0 ± 0.021,-0.018 ± 0.05,-0.006 ± 0.017,0.01 ± 0.038,-0.025 ± 0.025
SAg:Proliferation,-0.0075 ± 0.019,-0.02 ± 0.03,-0.0095 ± 0.0092,-0.0035 ± 0.03,-0.0055 ± 0.00071,-0.0265 ± 0.011,-0.004 ± 0.024,-0.0195 ± 0.019,-0.174 ± 0.24,0.0435 ± 0.019,0.0255 ± 0.032,0.052 ± 0.065,0.0735 ± 0.037,0.048 ± 0.095,-0.023 ± 0.061,-0.005 ± 0.025,0.0115 ± 0.04,-0.015 ± 0.027,-0.024 ± 0.013
BT:sIL-2,0.084 ± 0.067,-0.005 ± 0.067,0.017 ± 0.13,0.068 ± 0.017,-0.041 ± 0.059,0.0165 ± 0.0092,0.034 ± 0.079,0.022 ± 0.0085,-0.0465 ± 0.053,0.008 ± 0.092,0.118 ± 0.013,-0.0245 ± 0.057,0.006 ± 0.05,0.0195 ± 0.032,0.0035 ± 0.053,0.0105 ± 0.11,0.01 ± 0.072,-0.008 ± 0.057,-0.0135 ± 0.019
